Experimental data: patent US8084621B2, “3-Pyrrolo[b]cyclohexylene-2-dihydroindolinone derivatives and uses thereof” (Jiangsu Simcere Pharmaceutical R&D Co. Ltd., priority 2006, dated 2011)

Key:
Type in all cases: cell-based
[1] = tested on: Human Colon Cancer Cell Line (HCT 116); assay: Tumor cell proliferation assay (MTT), HCT116; conditions: concentration of 10^−5 mol/L, preliminary screening, 72 hours, read-out: Inhibition rate % HCT116
Source text: (§1) The assay used generally is the blue tetrazolium bromide (MTT) method. […] The amount of formazan can be detected by the microplate reader through the absorption value at 570 nm. The amount of formazan product generated is proportional to the number of living cells in the sample, so the OD value may reflect the number of living cells and the ability of a test drug to inhibit or kill cells. The MTT assay may be used in determining the ability of different compounds of the present invention to inhibit one or more cancer cells proliferation. Similar assays can be designed along the same lines for any cancer cell using techniques well known in the art.
(§2) The assay used generally is the blue tetrazolium bromide (MTT) method. […] Intracellular purple formazan salt crystals can be solved in DMSO and the absorption value at 570 nm is detected by the microplate reader, then the number of living cells can be detected indirectly. So MTT assay may be used to determine the ability of a compound of the present invention to inhibit cell proliferation. Similar assays can be designed along the same lines for any cancer cell using techniques well known in the art.
2.2.12 Human Colon Cancer Cell Line (HCT 116);
The cells of 2.2.11, 2.2.12, 2.2.13 were cultured in MC COYS 5-A medium containing 12% fetal bovine serum in the condition of 37° C., 5% CO2.
(§3) 2.3.1 Cell seeding: Trypsinize the cell by 0.05% trypsin-EDTA and add RPMI 1640 medium (DMEM or 5A) containing 12% calf serum. Count the number, then dilute to 1.67×10^4/ml. Add 180 ul/well to the 96 well plate (3000 cells/well).
(§4) 2.3.2 Culture: cells are incubated for 24 hours at 37° C. under 5% CO2.
(§5) 2.3.3 Preliminary screening: The compounds are firstly diluted to 0.1 mol/L with DMSO, and then diluted to three concentrations of 10^−5 mol/L, 10^−6 mol/L and 10^−7 mol/L. Add 20 ul test compounds to the 96 well plate and incubate for 72 hours. Each group has three parallel wells and all experiments repeat three times. Each inhibition ratio is calculated, then an average value of three times is taken as the measured value. 2.3.4 Staining 2.3.4.1 Attached cell: add 20 ul/well MTT to the 96-well plates; incubate for 4 hours in the incubator. Pour out the culture medium in the well and add 100 ul/well DMSO. Shake the plate for 5 min. 2.3.4.2 Suspension cell: add 20 ul/well MTT to the 96-well plates; incubate for 4 hours in the incubator. Add 50 ul/well 20% SDS and incubate for overnight in the incubator. 2.3.5 Reading the plates: read the absorbance A570-A630 with the Infinite M200 microtiter plate reader. Calculate the inhibition ratio of the test compounds. 2.3.6 Secondary screening: the compounds whose inhibition ratio is greater than 50% at the concentrations of 10^−5 mol/L in the preliminary screening will be picked out for Secondary screening. Dilute these compounds to ten concentrations: 10^−5 mol/L, 0.5×10^−5 mol/L, 10^−6 mol/L, 0.8×10^−6 mol/L, 0.6×10^−6 mol/L, 0.4×10^−6 mol/L, 0.2×10^−6 mol/L, 10^−7 mol/L, 0.8×10^−7 mol/L and 0.4×10^−7 mol/L. Add 20 ul test compound solution to the 96 well plate and incubate for 48 hours. Each group has three parallel wells and all experiments repeat for three times. Read the plates and calculate the inhibition ratio according to the preliminary screening method. 2.3.7 Calculate the Inhibition Ratio of Cell Proliferation and the IC50
(§6) According to the inhibition ratio of cell proliferation at the different concentrations of the compound, inhibition ratio of 50% of the test compound is calculated through the logarithm of the concentration of the compound with the Logit [I] linear regression, and an average value of three times is taken as the measured value of a sample.

[2] = tested on: Human Bladder Cancer Cell Line (T24); assay: Tumor cell proliferation assay (MTT), T24; conditions: for inhibition at 10 µM: concentration of 10^−5 mol/L, preliminary screening, 72 hours, read-out: Inhibition rate % T24; for IC50: secondary screening, 48 hours
Source text: as §1, §2
2.2.7 Human Bladder Cancer Cell Line (T24);
The cells of 2.2.6, 2.2.7 cultured in RPMI 1640 medium containing 12% fetal bovine serum in the condition of 37° C., 5% CO2.
as §3, §4, §5, §6

[3] = tested on: Human Gastric Cancer Cell Line (BGC); assay: Tumor cell proliferation assay (MTT), BGC; conditions: for inhibition at 10 µM: concentration of 10^−5 mol/L, preliminary screening, 72 hours, read-out: Inhibition rate % BGC; for IC50: secondary screening, 48 hours
[4] = tested on: Human Colon Cancer Cell Line (HT-29); assay: Tumor cell proliferation assay (MTT), HT29; conditions: for inhibition at 10 µM: concentration of 10^−5 mol/L, preliminary screening, 72 hours, read-out: Inhibition rate % HT29; for IC50: secondary screening, 48 hours

Row | Structure (SMILES) | inhibition at 10 µM [1] | inhibition at 10 µM [2] | IC50 [2] | inhibition at 10 µM [3] | IC50 [3] | inhibition at 10 µM [4] | IC50 [4]
1 | Cc1[nH]c2c(c1C(=O)NCC(O)CN1CCCCC1)CCC/C2=C1/C(=O)Nc2ccc(F)cc21 (stereo not drawn) [I-74, N-(2-hydroxy-3-(piperidin-1-yl)propyl)-2-methyl-7-[1,2-dihydro-5-fluoro-2-oxo-3H-indol-(Z)-3-ylidene]-4,5,6,7-tetrahydro-1H-indole-3-carboxamide] | 99.9% | 98.7% | 2640 nM | 60.2% | 7950 nM | 92.2% | 420 nM
2 | Cc1[nH]c2c(c1C(=O)N1CCN(C)CC1)CCC/C2=C1/C(=O)Nc2ccc(F)cc21 [I-14, 2-methyl-3-(4-methylpiperazine-1-carbonyl)-7-[1,2-dihydro-5-fluoro-2-oxo-3H-indol-(Z)-3-ylidene]-4,5,6,7-tetrahydro-1H-indole] | 22.1% | 34.4% | – | 39.4% | – | 43.3% | –
3 | CCN(CC)CCNC(=O)c1c(C)[nH]c2c1CCC/C2=C1/C(=O)Nc2ccc(F)cc21 [I-2, N-(2-(diethylamino)ethyl)-2-methyl-7-[1,2-dihydro-5-fluoro-2-oxo-3H-indol-(Z)-3-ylidene]-4,5,6,7-tetrahydro-1H-indole-3-carboxamide] | 99.4% | 81.4% | 3310 nM | 71% | 6110 nM | 97.4% | 1200 nM
